Melting point and ED50 data for four compounds are collected here from patent US20040077617A1, “Fused cycloalkyl amides and acids and their therapeutic applications” (priority 2002, published 2004).

Data set [1] concerns CD-1 mice. As to the kind of experiment: Maximal Electroshock Procedure (protection from tonic seizures). The format is in vivo. Conditions: Mus musculus, po; maximal electroshock (50 mA, 0.4 second, corneal electrodes); male CD-1 mice; p.o. 30 minutes prior to stimulation; PROBIT analysis; read-out: ED50 (dose at which 50% of the mice were protected from tonic seizures). As for the experimental part: (§1) Adult, male, CD-1 mice (22-25 grams) were obtained from Charles River Laboratories (Portage, Mich.) and housed at Abbott Laboratories (Abbott Park) under standard lighting conditions of 12 hours on/12 hours off, with lights on at 6 a.m. Food and water were provided ad libitum and mice weighed 25-35 grams at the time of testing.
(§2) Compounds were prepared for oral administration by suspending them in a vehicle of 100 μL Tween® 80 per mL hydroxypropyl methylcellulose (2 mg/mL, Abbott Laboratories). Compound solutions were administered at a volume of 10 mL/kg, p.o.
Maximal Electroshock Procedure:
The method used was similar to that of E.A. Swinyard, General principles: Experimental selection, quantification and evaluation of anti-convulsants, Anti-epileptic Drugs, Third Edition, R. Levey, et al., Editors. 1989, Raven Press Ltd: New York. Mice were pretreated orally with compounds of the present invention 30 minutes prior to electrical stimulation. Electrical stimulation consisted of pulsed electrical current (50 mA, 0.4 second duration, pulse width 0.5 msec, 60 pulses/sec) applied via corneal electrodes to induce seizure. The stimulation was delivered with an ECT Unit (Ugo Basile #7801). […] The percent protection from tonic seizures was calculated by dividing the number of protected mice by the total number in the group. […]
In general terms: The maximal electroshock test induces tonic seizures with an electrical stimulus.

Data set [2] deals with CD-1 mice. Briefly: Subcutaneous pentylenetetrazole (PTZ) Seizure Procedure. The format is in vivo. Conditions: Mus musculus; subcutaneous PTZ 85 mg/kg; male CD-1 mice; p.o. 30 minutes prior to PTZ; observed 15 minutes; linear regression; read-out: ED50 (dose at which 50% of the mice were protected from tonic seizures). On the procedure:
as §1, §2
Subcutaneous pentylenetetrazole (PTZ) Seizure Procedure:
The method used was similar to that of E. A. Swinyard, General principles: Experimental selection, quantification and evaluation of anti-convulsants, Anti-epileptic Drugs, Third Edition, R. Levey, et al., Editors. 1989, Raven Press Ltd: New York. During the experiment the mice were housed individually in clear polycarbonate cages for observation. […] Seizures were induced by the subcutaneous injection of pentylenetetrazole (PTZ, 85 mg/kg) just below the nape of the neck. […] A total of 20 mice were used in each group. The ED50for the compounds were calculated using linear regression and represent the dose at which 50% of the mice were protected from tonic seizures.

Each structure is given as a SMILES string.

On to `CC1(C)[C@@H]2CC3[C@H](C(=O)O)[C@@]3(C)C[C@@H]21` (stereo partly drawn) (hydrate or solvate) [Example 1, (1S,3S,4S,7R)-3,8,8-trimethyltricyclo[5.1.0.0^3,5]octane-4-carboxylic acid], for which the melting point was determined as 86 °C.
Still for that read-out and setting: in the case of `CC1(C)[C@@H]2CC3[C@H](C(N)=O)[C@@]3(C)C[C@@H]21` (stereo partly drawn) [Example 3, (1S,3S,4S,7R)-3,8,8-trimethyltricyclo[5.1.0.0^3,5]octane-4-carboxamide] it was 121.5 to 122.5 °C; in that of `CC1(C)[C@@H]2CC3[C@H](C(=O)NCC(N)=O)[C@@]3(C)C[C@@H]21` (stereo partly drawn) [Example 4, (1S,3S,4S,7R)-N-(2-amino-2-oxoethyl)-3,8,8-trimethyltricyclo[5.1.0.0^3,5]octane-4-carboxamide], 169.2 to 169.7 °C.
`CCCC(CCC)C(=O)O` [Valproate]: the values for the median effective dose (ED50) with CD-1 mice [1] and in the data set with CD-1 mice [2] were 1200 µmol/kg and 1800 µmol/kg, respectively.

The melting point is the temperature of the solid-liquid transition. The term ED50 denotes the dose at which the effect has come halfway, by size or by number of responders.
